Measured values published in US20250129067A1 (Progentos Therapeutics, Inc., priority 2021, published 2025).

What was measured:
PDGFRα = PDGFRα (Homo sapiens (Human), UniProt P16234); assay: PDGFRα kinase enzyme assay (Promega PDGFRα Kinase Enzyme System, ADP-Glo); format: biochemical; conditions: 11-point dose response, 10,000 nM to 0.169 nM; 150 uM ATP; BLQ = below limit of quantitation; read-out: IC50 Values on PDGFRα Kinase Inhibition, IC50
Method in brief: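 Purified PDGFRα protein (20 ng) reacted with test compound per the Promega kinase system protocol. ADP formed was measured by ADP-Glo luminescence against a standard curve, giving IC50.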

[1] = test system: Oligodendrocyte progenitor cells (OPCs); assay: In vitro OPC differentiation assay, GPR17 expression (immunocytochemistry); conditions: 3 μM (10× concentration, final 0.3 μM); 72 hours; fold change over vehicle

Chain of PDGFRα (P16234 24-1089): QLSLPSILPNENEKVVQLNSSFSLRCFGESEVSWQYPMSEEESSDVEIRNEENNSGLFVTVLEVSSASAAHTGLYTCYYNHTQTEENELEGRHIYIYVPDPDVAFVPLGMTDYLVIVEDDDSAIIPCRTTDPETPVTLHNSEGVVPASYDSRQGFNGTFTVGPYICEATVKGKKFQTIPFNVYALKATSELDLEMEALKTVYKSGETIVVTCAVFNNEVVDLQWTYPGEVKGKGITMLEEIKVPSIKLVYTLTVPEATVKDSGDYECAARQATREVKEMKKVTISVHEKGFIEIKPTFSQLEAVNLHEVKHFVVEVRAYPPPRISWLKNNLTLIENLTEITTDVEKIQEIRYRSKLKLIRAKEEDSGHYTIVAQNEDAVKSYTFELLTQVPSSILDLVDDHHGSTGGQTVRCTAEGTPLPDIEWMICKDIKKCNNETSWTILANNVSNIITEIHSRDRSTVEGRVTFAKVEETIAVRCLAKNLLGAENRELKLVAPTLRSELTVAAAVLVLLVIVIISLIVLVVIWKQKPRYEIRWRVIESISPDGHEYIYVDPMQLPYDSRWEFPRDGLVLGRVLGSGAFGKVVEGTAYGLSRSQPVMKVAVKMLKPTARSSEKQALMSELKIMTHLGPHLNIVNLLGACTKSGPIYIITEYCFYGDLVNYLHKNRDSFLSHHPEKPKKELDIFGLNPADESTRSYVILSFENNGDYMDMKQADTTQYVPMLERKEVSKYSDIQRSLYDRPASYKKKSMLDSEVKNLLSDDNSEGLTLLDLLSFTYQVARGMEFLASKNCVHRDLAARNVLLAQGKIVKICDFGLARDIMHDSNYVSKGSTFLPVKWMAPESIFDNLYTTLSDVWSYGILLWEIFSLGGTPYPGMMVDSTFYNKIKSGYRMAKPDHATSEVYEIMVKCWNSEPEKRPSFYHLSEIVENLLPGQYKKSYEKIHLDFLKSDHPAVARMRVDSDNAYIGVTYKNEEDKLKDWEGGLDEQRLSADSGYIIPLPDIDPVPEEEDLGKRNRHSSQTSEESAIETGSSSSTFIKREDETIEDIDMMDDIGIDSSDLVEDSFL

Row | Structure (SMILES) | IC50 (PDGFRα) [µM] | GPR17 Fold Induction (Over Vehicle; 3 μM) [1]
1 | Cn1cc(-c2ccc3c(N4CCN(C(=O)OCc5csc(Cl)c5)CC4)cnn3c2)cn1 [Compound 197, (5-chlorothiophen-3-yl)methyl 4-(6-(1-methyl-1H-pyrazol-4-yl)pyrazolo[1,5-a]pyridin-3-yl)piperazine-1-carboxylate] | 0.0653 | 12.24
2 | Cc1cnc(COC(=O)N2CCN(c3cnn4cc(-c5cnn(C)c5)ccc34)CC2)o1 [Compound 199, (5-methyloxazol-2-yl)methyl 4-(6-(1-methyl-1H-pyrazol-4-yl)pyrazolo[1,5-a]pyridin-3-yl)piperazine-1-carboxylate] | 1.24 | 4.08
3 | Cn1cc(-c2ccc3c(N4CCN(Cc5csc(Cl)c5)CC4)cnn3c2)cn1 [Compound 200, 3-(4-((5-chlorothiophen-3-yl)methyl)piperazin-1-yl)-6-(1-methyl-1H-pyrazol-4-yl)pyrazolo[1,5-a]pyridine] | 6.96 | 2.20
4 | Cc1ccc(CN2CCN(c3cnn4cc(-c5cnn(C)c5)ccc34)CC2)o1 [Compound 201, 6-(1-methyl-1H-pyrazol-4-yl)-3-(4-((5-methylfuran-2-yl)methyl)piperazin-1-yl)pyrazolo[1,5-a]pyridine] | > 10 | 1.30
5 | CCCc1ccc2c(N3CCN(C(=O)OC(C)(C)C)CC3)cnn2c1 [Compound 203, tert-butyl 4-(6-propylpyrazolo[1,5-a]pyridin-3-yl)piperazine-1-carboxylate] | > 10 | 1.35
6 | CC(C)(C)OC(=O)N1CCN(c2cnn3cc(CCCO)ccc23)CC1 [Compound 204, tert-butyl 4-(6-(3-hydroxypropyl)pyrazolo[1,5-a]pyridin-3-yl)piperazine-1-carboxylate] | > 10 | 1.20
7 | CC(C)(C)OC(=O)N1CCN(c2cnn3cc(CCCN4CCCC4)ccc23)CC1 [Compound 205, tert-butyl-4-(6-(3-(pyrrolidin-1-yl)propyl)pyrazolo[1,5-a]pyridin-3-yl)piperazine-1-carboxylate] | > 10 | 1.92
8 | CC(C)(C)OC(=O)N1CCN(c2cnn3cc(-c4ccccc4)ccc23)CC1 [Compound 206, tert-butyl 4-(6-phenylpyrazolo[1,5-a]pyridin-3-yl)piperazine-1-carboxylate] | 5.34 | 3.32
9 | CC(C)(C)OC(=O)N1CCN(c2cnn3cc(-c4ccc(F)cc4)ccc23)CC1 [Compound 207, tert-butyl 4-(6-(4-fluorophenyl)pyrazolo[1,5-a]pyridin-3-yl)piperazine-1-carboxylate] | 4.83 | 2.24
10 | CC(C)(C)OC(=O)N1CCN(c2cnn3cc(-c4cccc(F)c4)ccc23)CC1 [Compound 208, tert-butyl 4-(6-(3-fluorophenyl)pyrazolo[1,5-a]pyridin-3-yl)piperazine-1-carboxylate] | > 10 | 1.22
11 | CC(C)(C)OC(=O)N1CCN(c2cnn3cc(-c4ccccc4F)ccc23)CC1 [Compound 209, tert-butyl-4-(6-(2-fluorophenyl)pyrazolo[1,5-a]pyridin-3-yl)piperazine-1-carboxylate] | > 10 | 2.02
12 | COc1ccc(-c2ccc3c(N4CCN(C(=O)OC(C)(C)C)CC4)cnn3c2)cc1 [Compound 210, tert-butyl 4-(6-(4-methoxyphenyl)pyrazolo[1,5-a]pyridin-3-yl)piperazine-1-carboxylate] | 7.48 | 4.38
13 | COc1cccc(-c2ccc3c(N4CCN(C(=O)OC(C)(C)C)CC4)cnn3c2)c1 [Compound 211, tert-butyl 4-(6-(3-methoxyphenyl)pyrazolo[1,5-a]pyridin-3-yl)piperazine-1-carboxylate] | 7.38 | 2.54
14 | COc1ccccc1-c1ccc2c(N3CCN(C(=O)OC(C)(C)C)CC3)cnn2c1 [Compound 212, tert-butyl 4-(6-(2-methoxyphenyl)pyrazolo[1,5-a]pyridin-3-yl)piperazine-1-carboxylate] | 3.67 | 2.51
15 | CC(C)(C)OC(=O)N1CCN(c2cnn3cc(C4CC4)ccc23)CC1 [Compound 213, tert-butyl 4-{6-cyclopropylpyrazolo[1,5-a]pyridin-3-yl}piperazine-1-carboxylate] | > 10 | 0.68
16 | CC(C)(C)OC(=O)N1CCN(c2cnn3cc(C4CCCC4)ccc23)CC1 [Compound 214, tert-butyl 4-(6-cyclopentylpyrazolo[1,5-a]pyridin-3-yl)piperazine-1-carboxylate] | > 10 | 2.00

Row | Structure (SMILES) | IC50 (PDGFRα) [µM] | GPR17 Fold Induction (Over Vehicle; 3 μM) [1]
17 | CC(C)(C)OC(=O)N1CCN(c2cnn3cc(C4CCC(O)C4)ccc23)CC1 (stereo not shown) [Compound 215, tert-butyl 4-[6-(3-hydroxycyclopentyl)pyrazolo[1,5-a]pyridin-3-yl]piperazine-1-carboxylate] | > 10 | 0.76
18 | CC(C)(C)OC(=O)N1CCN(c2cnn3cc(-c4ccccn4)ccc23)CC1 [Compound 216, tert-butyl 4-[6-(pyridin-2-yl)pyrazolo[1,5-a]pyridin-3-yl]piperazine-1-carboxylate] | 1 | 1.92
19 | CC(C)(C)OC(=O)N1CCN(c2cnn3cc(-c4ccncc4)ccc23)CC1 [Compound 218, tert-butyl 4-(6-(pyridin-4-yl)pyrazolo[1,5-a]pyridin-3-yl)piperazine-1-carboxylate] | 2.31 | 3.46
20 | CC(C)(C)OC(=O)N1CCN(c2cnn3cc(-c4cncnc4)ccc23)CC1 [Compound 219, tert-butyl 4-(6-(pyrimidin-5-yl)pyrazolo[1,5-a]pyridin-3-yl)piperazine-1-carboxylate] | > 10 | 1.42
21 | Cc1nn(C)cc1-c1ccc2c(N3CCN(C(=O)OC(C)(C)C)CC3)cnn2c1 [Compound 220, tert-butyl 4-(6-(1,3-dimethyl-1H-pyrazol-4-yl)pyrazolo[1,5-a]pyridin-3-yl)piperazine-1-carboxylate] | 0.528 | 5.20
22 | Cc1c(-c2ccc3c(N4CCN(C(=O)OC(C)(C)C)CC4)cnn3c2)cnn1C [Compound 221, tert-butyl 4-(6-(1,5-dimethyl-1H-pyrazol-4-yl)pyrazolo[1,5-a]pyridin-3-yl)piperazine-1-carboxylate] | 0.506 | 6.61
23 | Cc1nn(C)c(C)c1-c1ccc2c(N3CCN(C(=O)OC(C)(C)C)CC3)cnn2c1 [Compound 222, tert-butyl 4-(6-(1,3,5-trimethyl-1H-pyrazol-4-yl)pyrazolo[1,5-a]pyridin-3-yl)piperazine-1-carboxylate] | 0.912 | 3.74
24 | CN1CCC(c2ccc3c(N4CCN(C(=O)OC(C)(C)C)CC4)cnn3c2)C1 (stereo not shown) [Compound 223, tert-butyl 4-(6-(1-methylpyrrolidin-3-yl)pyrazolo[1,5-a]pyridin-3-yl)piperazine-1-carboxylate] | 9.25 | 1.13
25 | CC(C)(C)OC(=O)N1CCN(c2cnn3cc(C4CCOCC4)ccc23)CC1 [Compound 224, tert-butyl-4-(6-(tetrahydro-2H-pyran-4-yl)pyrazolo[1,5-a]pyridin-3-yl)piperazine-1-carboxylate] | > 10 | 0.66
26 | CN1CCC(c2ccc3c(N4CCN(C(=O)OC(C)(C)C)CC4)cnn3c2)CC1 [Compound 225, tert-butyl 4-(6-(1-methylpiperidin-4-yl)pyrazolo[1,5-a]pyridin-3-yl)piperazine-1-carboxylate] | > 10 | 1.55
27 | Cn1cnc(-c2ccc3c(N4CCN(C(=O)OC(C)(C)C)CC4)cnn3c2)c1 [Compound 226, tert-butyl 4-(6-(1-methyl-1H-imidazol-4-yl)pyrazolo[1,5-a]pyridin-3-yl)piperazine-1-carboxylate] | 1.42 | 11.69
28 | COCCn1cnc(-c2ccc3c(N4CCN(C(=O)OC(C)(C)C)CC4)cnn3c2)c1 [Compound 227, tert-butyl 4-(6-(1-(2-methoxyethyl)-1H-imidazol-4-yl)pyrazolo[1,5-a]pyridin-3-yl)piperazine-1-carboxylate] | 0.268 | 9.02
29 | COCCn1cncc1-c1ccc2c(N3CCN(C(=O)OC(C)(C)C)CC3)cnn2c1 [Compound 228, tert-butyl 4-(6-(1-(2-methoxyethyl)-1H-imidazol-5-yl)pyrazolo[1,5-a]pyridin-3-yl)piperazine-1-carboxylate] | > 10 | 1.19
30 | CC(C)(C)OC(=O)N1CCN(c2cnn3cc(-c4cn(CCO)cn4)ccc23)CC1 [Compound 229, tert-butyl 4-(6-(1-(2-hydroxyethyl)-1H-imidazol-4-yl)pyrazolo[1,5-a]pyridin-3-yl)piperazine-1-carboxylate] | 0.363 | 10.61
31 | CC(C)(C)OC(=O)N1CCN(c2cnn3cc(-c4cncn4CCO)ccc23)CC1 [Compound 230, tert-butyl 4-(6-(1-(2-hydroxyethyl)-1H-imidazol-5-yl)pyrazolo[1,5-a]pyridin-3-yl)piperazine-1-carboxylate] | > 10 | 0.97
32 | CC(C)(C)OC(=O)N1CCN(c2cnn3cc(-c4cn(CCCN5CCOCC5)cn4)ccc23)CC1 [Compound 231, tert-butyl 4-(6-(1-(3-morpholinopropyl)-1H-imidazol-4-yl)pyrazolo[1,5-a]pyridin-3-yl)piperazine-1-carboxylate] | 0.395 | 9.34
